Values after ≈ are worked out from the molar mass of the structure shown.
Key:
Test in all cases: in vitro antibacterial activity (MIC, NCCLS dilution)
Format in all cases: cell-based
E.faecalis MGH-2 EF 1-1 = conditions: Enterococcus faecalis, MGH2EF11
From the text: (§1) The in vitro antibacterial activity of the compounds of the present invention may be assessed by following procedures recommended in (1) National Committee for Clinical Laboratory Standards (January 2003), Methods for dilution antimicrobial tests for bacteria that grow aerobically, Approved Standard (6th ed), M7-A6, NCCLS, Wayne, Pa.; (2) National Committee for Clinical Laboratory Standards (March 2001), Method for antimicrobial susceptibility testing of anaerobic bacteria, Approved Standard (5th ed), M11-A4, NCCLS, Wayne, Pa.; (3) National Committee for Clinical Laboratory Standards (January 2003), MIC testing supplemental tables, M100-S13 (for use with M7-A6), NCCLS, Wayne, Pa.; and (4) Murray P R, Baron E J, Jorgensen J H, et al. Manual of Clinical Microbiology (8th ed) Washington, D.C.: American Society for Microbiology Press, 2003. The MJC value is the lowest concentration of drug which prevented macroscopically visible growth under the conditions of the test.

S. aureus UC-76 SA-1 = conditions: Staphylococcus aureus, UC76
From the text: as §1

S. pneumoniae SV1 SP-3 = conditions: Streptococcus pneumoniae, SV1SP3
From the text: as §1

Compound | MIC90 (E.faecalis MGH-2 EF 1-1) [µg/mL] | MIC90 (S. aureus UC-76 SA-1) [µg/mL] | MIC90 (S. pneumoniae SV1 SP-3) [µg/mL]
CNC(=O)[C@H]1CN(c2ccc3c(c2)CC(=O)N3C)C(=O)O1 [Example 2] | 4 (≈ 13.8 µM) | 2 (≈ 6.91 µM) | 2 (≈ 6.91 µM)
CCN1C(=O)Cc2cc(N3C[C@H](C(N)=O)OC3=O)ccc21 [Example 4, (5R)-3-(1-ethyl-2-oxo-2,3-dihydro-1H-indol-5-yl)-2-oxo-oxazolidine-5-carboxylic acid amide] | 4 (≈ 13.8 µM) | 4 (≈ 13.8 µM) | 2 (≈ 6.91 µM)
CC(C)N1C(=O)Cc2cc(N3C[C@H](C(N)=O)OC3=O)cc(F)c21 [Example 10, (5R)-3-(7-fluoro-1-isopropyl-2-oxo-2,3-dihydro-1H-indol-5-yl)-2-oxo-oxazolidine-5-carboxylic acid amide] | 4 (≈ 12.4 µM) | 4 (≈ 12.4 µM) | 4 (≈ 12.4 µM)
CNC(=O)[C@H]1CN(c2ccc3c(c2)CC(=O)N3C(C)C)C(=O)O1 [Example 9, (5R)-3-(1-isopropyl-2-oxo-2,3-dihydro-1H-indol-5-yl)-2-oxo-oxazolidine-5-carboxylic acid methylamide] | 8 (≈ 25.2 µM) | 8 (≈ 25.2 µM) | 4 (≈ 12.6 µM)
CC(C)N1C(=O)Cc2cc(N3C[C@H](C(N)=O)OC3=O)ccc21 [Example 8] | 4 (≈ 13.2 µM) | 4 (≈ 13.2 µM) | 4 (≈ 13.2 µM)
CNC(=O)[C@H]1CN(c2ccc3c(c2)CC(=O)N3C2CC2)C(=O)O1 [Example 12, (5R)-3-(1-cyclopropyl-2-oxo-2,3-dihydro-1H-indol-5-yl)-2-oxo-oxazolidine-5-carboxylic acid methylamide] | 16 (≈ 50.7 µM) | 8 (≈ 25.4 µM) | 8 (≈ 25.4 µM)
CN1C(=O)Cc2cc(N3C[C@H](C(N)=O)OC3=O)ccc21 [Example 1, (5R)-3-(1-methyl-2-oxo-2,3-dihydro-1H-indol-5-yl)-2-oxo-oxazolidine-5-carboxylic acid amide] | 4 (≈ 14.5 µM) | 2 (≈ 7.27 µM) | 2 (≈ 7.27 µM)
CCCN1C(=O)Cc2cc(N3C[C@H](C(=O)NC)OC3=O)ccc21 [Example 14, (R)-2-oxo-3-(2-oxo-1-propyl-2,3-dihydro-1H-indol-5-yl)-oxazolidine-5-carboxylic acid methylamide] | 4 (≈ 12.6 µM) | 4 (≈ 12.6 µM) | 4 (≈ 12.6 µM)
CN1C(=O)Cc2cc(N3C[C@H](C(N)=O)OC3=O)cc(F)c21 [Example 3, (5R)-3-(7-fluoro-1-methyl-2-oxo-2,3-dihydro-1H-indol-5-yl)-2-oxo-oxazolidine-5-carboxylic acid amide] | 16 (≈ 54.6 µM) | 16 (≈ 54.6 µM) | 16 (≈ 54.6 µM)
CCCN1C(=O)Cc2cc(N3C[C@H](C(N)=O)OC3=O)cc(F)c21 [Example 15, (R)-3-(7-fluoro-2-oxo-1-propyl-2,3-dihydro-1H-indol-5-yl)-2-oxo-oxazolidine-5-carboxylic acid amide] | 8 (≈ 24.9 µM) | 4 (≈ 12.4 µM) | 8 (≈ 24.9 µM)
CNC(=O)[C@H]1CN(c2ccc3c(c2)CC(=O)N3CCF)C(=O)O1 [Example 7] | 4 (≈ 12.4 µM) | 4 (≈ 12.4 µM) | 4 (≈ 12.4 µM)

The remaining compounds from weak to strong by MIC90 (E.faecalis MGH-2 EF 1-1), led by results:

MIC90 (E.faecalis MGH-2 EF 1-1) [µg/mL] | MIC90 (S. aureus UC-76 SA-1) [µg/mL] | MIC90 (S. pneumoniae SV1 SP-3) [µg/mL] | Compound
64 (≈ 203 µM) | 32 (≈ 101 µM) | 64 (≈ 203 µM) | NC(=O)[C@H]1CN(c2ccc3c(c2)CC(=O)N3C2CCC2)C(=O)O1 [Example 22, (R)-3-(1-cyclobutyl-2-oxo-2,3-dihydro-1H-indol-5-yl)-2-oxo-oxazolidine-5-carboxylic acid amide]
64 (≈ 194 µM) | 16 (≈ 48.6 µM) | 32 (≈ 97.2 µM) | CNC(=O)[C@H]1CN(c2ccc3c(c2)CC(=O)N3C2CCC2)C(=O)O1 [Example 23, (R)-3-(1-cyclobutyl-2-oxo-2,3-dihydro-1H-indol-5-yl)-2-oxo-oxazolidine-5-carboxylic acid methylamide]
64 (≈ 202 µM) | 64 (≈ 202 µM) | 64 (≈ 202 µM) | CC(C)CN1C(=O)Cc2cc(N3C[C@H](C(N)=O)OC3=O)ccc21 [Example 20, (R)-3-(1-Isobutyl-2-oxo-2,3-dihydro-1H-indol-5-yl)-2-oxo-oxazolidine-5-carboxylic acid amide]
64 (≈ 193 µM) | 64 (≈ 193 µM) | 64 (≈ 193 µM) | CNC(=O)[C@H]1CN(c2ccc3c(c2)CC(=O)N3CC(C)C)C(=O)O1 [Example 21, (R)-3-(1-isobutyl-2-oxo-2,3-dihydro-1H-indol-5-yl)-2-oxo-oxazolidine-5-carboxylic acid methylamide]
16 (≈ 50.4 µM) | 8 (≈ 25.2 µM) | 16 (≈ 50.4 µM) | CC(C)(C)N1C(=O)Cc2cc(N3C[C@H](C(N)=O)OC3=O)ccc21 [Example 16]
16 (≈ 53.1 µM) | 8 (≈ 26.6 µM) | 8 (≈ 26.6 µM) | NC(=O)[C@H]1CN(c2ccc3c(c2)CC(=O)N3C2CC2)C(=O)O1 [Example 11, (5R)-3-(1-cyclopropyl-2-oxo-2,3-dihydro-1H-indol-5-yl)-2-oxo-oxazolidine-5-carboxylic acid amide]
8 (≈ 25.2 µM) | 4 (≈ 12.6 µM) | 8 (≈ 25.2 µM) | CCC(C)N1C(=O)Cc2cc(N3C[C@H](C(N)=O)OC3=O)ccc21 (stereo partly drawn) [Example 17, (R)-3-(1-sec-butyl-2-oxo-2,3-dihydro-1H-indol-5-yl)-2-oxo-oxazolidine-5-carboxylic acid amide]
8 (≈ 24.1 µM) | 8 (≈ 24.1 µM) | 8 (≈ 24.1 µM) | CCC(C)N1C(=O)Cc2cc(N3C[C@H](C(=O)NC)OC3=O)ccc21 (stereo partly drawn) [Example 18, (R)-3-(1-sec-butyl-2-oxo-2,3-dihydro-1H-indol-5-yl)-2-oxo-oxazolidine-5-carboxylic acid methylamide]
8 (≈ 26.4 µM) | 4 (≈ 13.2 µM) | 8 (≈ 26.4 µM) | CCCN1C(=O)Cc2cc(N3C[C@H](C(N)=O)OC3=O)ccc21 [Example 13, (R)-2-oxo-3-(2-oxo-1-propyl-2,3-dihydro-1H-indol-5-yl)-oxazolidine-5-carboxylic acid amide]
4 (≈ 13 µM) | 4 (≈ 13 µM) | 4 (≈ 13 µM) | NC(=O)[C@H]1CN(c2ccc3c(c2)CC(=O)N3CCF)C(=O)O1 [Example 6]
4 (≈ 13.2 µM) | 4 (≈ 13.2 µM) | 4 (≈ 13.2 µM) | CCN1C(=O)Cc2cc(N3C[C@H](C(=O)NC)OC3=O)ccc21 [Example 5]
4 (≈ 12.4 µM) | 4 (≈ 12.4 µM) | 4 (≈ 12.4 µM) | CC(CF)N1C(=O)Cc2cc(N3C[C@H](C(N)=O)OC3=O)ccc21 (stereo partly drawn) [Example 19, (R)-3-[1-(2-fluoro-1-methyl-ethyl)-2-oxo-2,3-dihydro-1H-indol-5-yl]-2-oxo-oxazolidine-5-carboxylic acid amide]

Reference: patent US20060030609A1, “Oxazolidinones containing oxindoles as antibacterial agents” (priority 2004, published 2006)
